In patent US20190178896A1, “MARKER FOR THE CLASSIFICATION, DIAGNOSIS AND TREATMENT OF SCOLIOSIS” (Chu Sainte-Justine, priority 2013, published 2019):
Where a name gives a salt, the structure may show the parent alone. Read-outs that look alike come from different tables or passages of the source.

Key:
Gs and Gq proteins = test: Gs and Gq siRNA knockdown effect on impedance signature of GiPCR agonists in osteoblasts; type: cell-based, human
Procedure: Osteoblasts from control subjects and AIS patients of each functional group were transfected with scramble siRNA, Gs siRNA, or Gq siRNA. Efficiency of siRNA in control and AIS groups was verified with qPCR and Western blot analyses 48 hours after transfection, and response to stimulation with GiPCR agonist of cluster I, cluster II, cluster III and cluster IV was evaluated by challenging cells with 10 μM of (FIG. 14A-14D) LPA, (FIG. 14EA-14H) CB65, (FIG. 14I-14L) Somatostatin and (FIG. 14M-14P) Apelin-17, respectively. […] The impedance represented in y-axis as dziec was measured every 2 sec. Data are representative of impedance signatures generated by CellKey™ system in osteoblasts from 12 individuals tested three times in duplicate for each group.;
All Gi1, Gi2, Gi3, Gs and scrambled siRNA were obtained from Ambion (Ambion USA). The sequences used for gene silencing are shown in supplemental Table 3. Osteoblasts from control subjects and AIS patients were transiently transfected in serum-free medium, using Lipofectamine RNAiMAX reagent (Invitrogen) according to the manufacturer's instructions and functional experiments were performed 48 h post transfection. The gene knockdown was evaluated by quantitative real-time PCR (qPCR).
The possibility that the disparity in the shape of impedance among AIS groups in response to GiPCR activation implicates a component of Gs or Gq proteins-dependent response was then […] examined For this purpose, the small interference RNA (siRNA) approach was used to knockdown Gs or Gq proteins prior to stimulate cells.

[1] = tested on: osteoblasts from control and AIS patients; test: cells
Procedure: The targeted endogenous receptors are shown in parentheses. The impedance represented in y-axis as dziec was measured by the Cellkey™ system every 2 sec. Data are representative of impedance signature in osteoblasts from 12 individuals tested three times in duplicate for each group;
A total of ten compounds were tested and the representative refraction index curves generated by each of these compounds in control and AIS osteoblasts are illustrated in FIGS. 10A-10J).

[2] = tested on: PBMCs from patients with IS; test: Effect of rOPN on cellular response to Gi stimulation (somatostatin) in PBMCs, CDS-based system; type: cell-based, human; details: 0.5 μg/mL rOPN 18 h, 10 μM somatostatin
Procedure: Cells were serum-starved for 18 h in the presence or absence of 0.5 μg/mL rOPN and then stimulated with 10 μM of somatostatin to initiate Gi-mediated cellular response. Data in the graph were generated from maximum-minimum impedance and correspond to the average of response in duplicate;
3. Functional Assay: Day 1: 1. Place PBMCs aliquot from liquid nitrogen in water bath at 37° C. for a minute or until defrosted. 2. Transfer the cell suspension to a 50 mL tube with a sterile pipette. 3. Add 15 mL of Complete media and spin the cells down at 200×g for 5 minutes at room temperature. 4. Remove the supernatant by aspiration. 5. Gently suspend cell pellet in 1 mL of PHA media. 6. Complete the volume to 20 mL with the same media. 7. Cap the tube loosely to allow air to enter. 8. Leave the tube overnight at 37 ° C. in a CO2 incubator to allow quiescent lymphocytes to transform into rapidly-proliferating lymphoblasts.
Day 2: 1. Take the tube out of the incubator, screw the caps completely and spin the cells down at 200×g for 5 min at room temperature. 2. Remove the supernatant by aspiration. 3. Gently suspend cell pellet in 1 mL of complete media. 4. Complete the volume to 20 mL with the same media. 5. Cap the tube loosely to allow air to enter. 6. Leave the tube overnight at 37° C. in a CO2 incubator to expand cell numbers.
Day 3: 1. Take the tube out of the incubator, screw the caps completely and spin the cells down at 200×g for […] at room temperature. 2. Remove the supernatant by aspiration. 3. Wash cells twice with 10 mL of RPMI-1640 (media developed for growing human normal and neoplastic leukocytes (peripheral blood lymphocytes)) by centrifugation at 200×g for […] at room temperature. 4. Gently re-suspend the cell pellet in 600 μL of RPMI-1640. 5. Measure the cell concentration and viability, using an automated cell counter and viability analyzer. 6. Add appropriate volume of RPMI-1640 to adjust to a cell concentration of 1.5×10^5 cell/20 μL. 7. Treat cells with recombinant OPN (rOPN) or vehicle (PBS). 7.1 Transfer 100 μL of cell suspension to two sterile 1.5 ml eppendorf tubes. […]

[3] = Homo sapiens, Osteoblast, read-out: Control EC50 (nM)
[4] = Homo sapiens, Osteoblast, read-out: FG1 EC50 (nM)
[5] = Homo sapiens, Osteoblast, read-out: FG2 EC50 (nM)
[6] = Homo sapiens, Osteoblast, read-out: FG3 EC50 (nM)

| Compound | Gs coupling (permissive) of agonist/GiPCR (Gs and Gq proteins; FG1) | EC50 [1, 3] [nM] | EC50 [1, 4] [nM] | EC50 [1, 5] [nM] | EC50 [1, 6] [nM] | also measured |
| --- | --- | --- | --- | --- | --- | --- |
| Lysophosphatidic acid [LPA] | LPA/Gs+ |  |  |  |  | Gq coupling (permissive) of agonist/GiPCR (Gs and Gq proteins; FG2): LPA/Gq+; Gq coupling (permissive) of agonist/GiPCR (Gs and Gq proteins; FG3): LPA/Gq+; EC50 ([1]; read-out: Control EC50, impedance response, osteoblasts from control subjects): 8.52 ± 1.5 nM; EC50 ([1]; read-out: FG1 EC50, impedance response, osteoblasts from AIS patients of group FG1): 8.78 ± 0.6 nM; EC50 ([1]; read-out: FG2 EC50, impedance response, osteoblasts from AIS patients of group FG2): 8.54 ± 1.4 nM; EC50 ([1]; read-out: FG3 EC50, impedance response, osteoblasts from AIS patients of group FG3): 8.59 ± 1.2 nM |
| c1ccc(N2CCN(CCCOc3ccc4c(c3)OCO4)CC2)cc1 [BP554, 1-[3-(3,4-Methylenedioxyphenoxy)propyl]-4-phenyl-piperazine maleate] |  | 22.3 ± 1.7 | 22.3 ± 2.3 | 22.5 ± 1.6 | 22.4 ± 1.5 |  |
| CSCC[C@H](NC(=O)[C@@H]1CCCN1C(=O)CNC(=O)[C@H](CCCCN)NC(=O)[C@H](Cc1c[nH]cn1)NC(=O)[C@H](CO)NC(=O)[C@H](CC(C)C)NC(=O)[C@H](CCCNC(=N)N)NC(=O)[C@@H]1CCCN1C(=O)[C@H](CCCNC(=N)N)NC(=O)[C@H](CCC(N)=O)NC(=O)[C@H](CCCNC(=N)N)NC(=O)[C@H](CCCNC(=N)N)NC(=O)[C@H](Cc1ccccc1)NC(=O)[C@@H](N)CCCCN)C(=O)N1CCC[C@H]1C(=O)N[C@@H](Cc1ccccc1)C(=O)O [Apelin-17] | Apelin-17/Gs− |  |  |  |  | Gs coupling (permissive) of agonist/GiPCR (Gs and Gq proteins; FG2): Apelin-17/Gs−; Gs coupling (permissive) of agonist/GiPCR (Gs and Gq proteins; FG3): Apelin-17/Gs− |
| Brc1c(NC2=NCCN2)ccc2nccnc12 [UK14304, 5-bromo-N-(4,5-dihydro-1H-imidazol-2-yl)-6-quinoxalinamine] |  | 16.5 ± 2.3 | 18.5 ± 4.2 | 16.6 ± 1.6 | 17.8 ± 1.3 |  |
| OPN: recombinant human osteopontin (R & D Systems) |  |  |  |  |  | reduction of response to Gi stimulation following rOPN treatment ([2]; patient 370): less than 50%; reduction of response to Gi stimulation following rOPN treatment ([2]; patients 345 and 382): more than 50%; OPN effect on the response to Gi stimulation ([2]; patients 353 and 371): increased the response |
| CCNC(=O)[C@H]1O[C@@H](n2cnc3c(N)ncnc32)[C@H](O)[C@@H]1O [NECA, 1-(6-Amino-9H-purin-9-yl)-1-deoxy-N-ethyl-β-D-ribofuranuronamide] |  | 20.9 ± 2.2 | 20.9 ± 1.7 | 20.8 ± 1.2 | 22.2 ± 2.2 |  |
| COc1ccc2[nH]cc(CCNC(C)=O)c2c1 [Melatonin, melatonin] |  | 33.4 ± 8.4 | 42.3 ± 9.4 | 48.7 ± 6.4 | 45.8 ± 5.3 |  |
| O=C(NC1CCCCC1)c1cn(CCN2CCOCC2)c2cc(Cl)ccc2c1=O [CB65, N-Cyclohexyl-7-chloro-1-[2-(4-morpholinyl)ethyl]quinolin-4(1H)-one-3-carboxamide] | CB65/Gs+ | 13.9 ± 1.2 | 14 ± 1.2 | 13.7 ± 1.2 | 13.9 ± 1.3 | Gs coupling (permissive) of agonist/GiPCR (Gs and Gq proteins; FG2): CB65/Gs−; Gs coupling (permissive) of agonist/GiPCR (Gs and Gq proteins; FG3): CB65/Gs− |
